The record followed here is patent US10766942B2, “Fragments of syndecan-2 having anti-angiogenic activity” (Queen Mary University of London, priority 2014, dated 2020).

The subject of one experiment is brain ECs. The experiment can be described thus: Scratch wound migration assay on brain ECs with murine syndecan-2 GST fusion proteins. The note with it: 0.5 μM fusion protein, vs GST alone. It is filed as cell-based. How it is done:
Scratch wound migration assays were performed in the presence of 0.5 μM of the fusion proteins indicated on brain ECs. Cell migration is measured by time lapse microscopy using an Olympus IX81 microscope with a controlled environment chamber set at 37° C., 10% CO2. Images were captured every 30 minutes using a Hamamatsu Orca ER digital camera and processed using Cell^M software (Olympus). (A) Phase contrast images 9 hours after the scratch was made. (B) EC migration speed is reduced in the presence of S2ED proteins containing the 18aa regulatory domain. Cell speed data represents mean measurements from at least 25 individual cells at the leading edge per treatment.
Migration assays were also performed on brain ECs in the presence of murine syndecan-2 GST fusion proteins—either S2ED or the truncated forms of this protein (S2EDΔP^124-F^141 and S2EDΔL^73-G^123).
Scratch wound migration assays: Scratch wound migration assays were performed on confluent monolayers of ECs. Wounds were made using a pipette tip, and fusion proteins were added to the medium and images were captured every 30 minutes for 12 hours by time lapse microscopy using an Olympus IX81 microscope. Percentage wound closure was calculated and individual cells tracked using Image J.

A further experiment concerns the target T1, CD148 (Mus musculus, UniProt Q64455).
T1 construct: endogenous in cells; bEND3.1 cells
T1 sequence (Q64455 29-1238): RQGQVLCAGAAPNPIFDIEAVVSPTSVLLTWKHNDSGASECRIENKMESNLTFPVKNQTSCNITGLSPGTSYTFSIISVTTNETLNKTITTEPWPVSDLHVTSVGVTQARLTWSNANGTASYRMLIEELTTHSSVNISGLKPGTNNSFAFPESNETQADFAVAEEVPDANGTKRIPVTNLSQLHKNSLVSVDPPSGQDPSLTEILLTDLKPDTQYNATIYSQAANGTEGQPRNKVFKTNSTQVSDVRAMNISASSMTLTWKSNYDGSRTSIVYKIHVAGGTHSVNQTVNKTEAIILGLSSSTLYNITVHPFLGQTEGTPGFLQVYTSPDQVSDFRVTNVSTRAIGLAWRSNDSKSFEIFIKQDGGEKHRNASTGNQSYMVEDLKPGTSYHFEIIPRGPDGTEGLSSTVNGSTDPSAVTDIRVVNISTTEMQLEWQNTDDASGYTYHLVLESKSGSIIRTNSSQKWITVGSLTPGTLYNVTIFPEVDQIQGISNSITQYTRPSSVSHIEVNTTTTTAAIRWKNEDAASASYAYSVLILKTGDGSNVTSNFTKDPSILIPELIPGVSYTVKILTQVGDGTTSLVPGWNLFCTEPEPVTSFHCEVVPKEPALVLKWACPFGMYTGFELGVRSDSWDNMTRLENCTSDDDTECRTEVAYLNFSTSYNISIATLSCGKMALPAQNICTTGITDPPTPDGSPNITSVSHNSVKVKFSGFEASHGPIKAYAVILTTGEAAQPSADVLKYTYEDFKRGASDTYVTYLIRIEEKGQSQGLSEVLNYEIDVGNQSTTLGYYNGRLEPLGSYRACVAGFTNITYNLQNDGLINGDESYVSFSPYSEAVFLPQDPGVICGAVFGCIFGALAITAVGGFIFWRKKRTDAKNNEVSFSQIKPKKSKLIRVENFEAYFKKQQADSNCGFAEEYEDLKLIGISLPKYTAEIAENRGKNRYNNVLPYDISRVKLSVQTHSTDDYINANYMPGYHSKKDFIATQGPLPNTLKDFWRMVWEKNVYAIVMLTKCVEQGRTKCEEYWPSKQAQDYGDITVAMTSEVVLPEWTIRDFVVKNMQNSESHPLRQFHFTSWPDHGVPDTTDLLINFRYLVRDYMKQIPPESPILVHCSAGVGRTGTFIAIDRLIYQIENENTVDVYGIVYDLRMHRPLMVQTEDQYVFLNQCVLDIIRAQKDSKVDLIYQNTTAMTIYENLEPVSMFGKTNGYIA
The experiment can be described thus: CD148 pull down from EC lysates with GST fusion protein coated beads, Western blot. It is filed as binding. Conditions: protein-coated beads as bait. How it is done:
(A) bEND3.1, MLEC and sEND cells express CD148. Western blot of lysates from the EC lines indicated were probed with antibodies to CD148 or β-tubulin. (B) CD148 interacts with murine syndecan extracellular core protein (S2ED). Cell lysates from sEND cells were incubated with beads coated with GST(control), S2ED, S2EDΔP^124-F^141 or S2EDΔL^73-G^123. Precipitates were analysed by Western blot for the presence of CD148. CD148 was only pulled down by forms of S2ED which contain the C-terminal 18 amino acid adhesion regulatory domain. Blot is representative of 4 experiments.
In fibroblasts the protein tyrosine phosphatase receptor CD148 interacts directly with the adhesion regulatory domain of S2ED leading to β1 integrin mediated cell attachment and spreading (Whiteford et al., 2011 Mol Biol Cell, 22(19):3609-24). To determine whether CD148 is a mediator for EC responses to S2ED the expression of CD148 on ECs from brain, lung and skin was confirmed.
CD148 pulldown and Western blot: Confluent bEND3.1 cells were lysed in 1% tritonx100 in TBS containing HALT protease and phosphatase inhibitors (Pierce). GST and S2ED were bound to glutathione-sepharose beads (GE Healthcare) and were added to cell lysates and incubated for 1 hour. Beads were isolated by centrifugation and washed twice in TBS, prior to incubation in Laemmli buffer and analysis by Western blot using standard procedures.
(Immunoblotting shows a protein as a band on a membrane.)

Experiment [1] concerns Rat aortas (aortic ring sections). The experiment can be described thus: Rat aortic ring angiogenic sprouting assay in collagen I matrices. It is filed as cell-based. The note with it: 0.5 μM in collagen I matrix; rat aortic rings; vs untreated and GST controls. How it is done: (A) Diagram of the murine syndecan-2 mutant proteins used in this study. (B) Rat aortas were seeded in collagen I matrices as above containing 0.5 μM of GST(control), S2ED or the mutant forms of S2ED. Sprouts from 8 rings per condition were counted and the mean calculated. Error bars represent the SEM and significance was calculated using a one way ANOVA with Bonferroni multiple comparison (p***<0.005, p****<0.0001).
In another assay with murine peptides, full length S2ED, S2EDΔP^124-F^141 (lacking adhesion regulatory domain) or S2EDΔL^73-G^123 (truncated form containing only the adhesion regulatory residues) were incorporated into collagen matrices in which aortic ring sections were embedded (FIGS. 4A and B).
Aortic ring assay: Thoracic aortas dissected from cervically dislocated 180-200 g male wistar rats (Harlan Laboratories) or 6 week old C57BL/6 mice (Charles River) were sliced into 0.5 mm sections and incubated overnight in serum free OptiMEM (Invitrogen) at 37° C. […] Angiogenic sprouts from rat and mouse aortas were counted after 4 days and 8 days respectively (Method based on that of Nicosia and Ottinetti (Laboratory Investigation 63:115-122, 1990) and modified in De Rossi et al. (Journal of Genetic Syndromes & Gene Therapy 4, 2013).

“S2EDΔP^124-F^141: murine syndecan-2 GST fusion mutant lacking adhesion regulatory domain (SEQ ID NO 4)”: in the experiment with brain ECs, the “EC cell migration (wound closure)” value is given as “did not affect cell migration”. The “Pull-down of CD148 from EC lysates” value with CD148 is “No CD148 was evident”.

For “S2EDΔL^73-G^123: truncated murine syndecan-2 GST fusion protein containing only the adhesion regulatory residues (SEQ ID NO 5)”, in the experiment with brain ECs, the “EC cell migration (wound closure)” value is recorded as “inhibited EC cell migration”. Besides, in experiment [1], the Angiogenic sprout formation result was “severely compromised”. Also, the “Pull-down of CD148 from EC lysates” value with CD148 is “successfully pull-down CD148”.

On to “S2ED: murine syndecan-2 extracellular core protein, full length, GST fusion protein (SEQ ID NO 3)”, for which the “EC cell migration (wound closure)” value in the experiment on brain ECs was “inhibited EC cell migration”. In addition, the Angiogenic sprout formation result in experiment [1] is on record as “severely compromised”. For the same substance, the “Pull-down of CD148 from EC lysates” value with CD148 is listed as “successfully pull-down CD148”.
